Measurements taken from patent US20260132129A1 (Genesis Therapeutics, Inc., priority 2022, published 2026).

Biological target: T1, PI3Kα H1047R (T47D cells) (Homo sapiens, UniProt P42336, H1047R)
T1 construct: endogenous in cells; host or cells: T47D cells
Assay: PI3Kα cellular assay: pAKT HTRF in T47D cells after EGF stimulation
Format: cell-based
Settings: for IC50: T47D cells (PI3Kα H1047R), pAKT S473 HTRF
In short: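 pAKT read by HTRF in lysates of EGF-stimulated (20 ng/mL, 10 min) T47D H1047R cells. Before stimulation, serum-starved cells (16 h) received compound for 1 h at 37 °C, dosed from 10,000 nM down to 0.5 nM in 3-fold steps.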

[1] = 1 hr compound, 20 ng/ml EGF 10 min
[2] = selectivity T47D (H1047R) over SKBR3 (WT), pAKT HTRF
[3] = selectivity of T47D (H1047R) over SKBR3 (WT) pAKT IC50

T1 sequence (P42336 whole entry H1047R): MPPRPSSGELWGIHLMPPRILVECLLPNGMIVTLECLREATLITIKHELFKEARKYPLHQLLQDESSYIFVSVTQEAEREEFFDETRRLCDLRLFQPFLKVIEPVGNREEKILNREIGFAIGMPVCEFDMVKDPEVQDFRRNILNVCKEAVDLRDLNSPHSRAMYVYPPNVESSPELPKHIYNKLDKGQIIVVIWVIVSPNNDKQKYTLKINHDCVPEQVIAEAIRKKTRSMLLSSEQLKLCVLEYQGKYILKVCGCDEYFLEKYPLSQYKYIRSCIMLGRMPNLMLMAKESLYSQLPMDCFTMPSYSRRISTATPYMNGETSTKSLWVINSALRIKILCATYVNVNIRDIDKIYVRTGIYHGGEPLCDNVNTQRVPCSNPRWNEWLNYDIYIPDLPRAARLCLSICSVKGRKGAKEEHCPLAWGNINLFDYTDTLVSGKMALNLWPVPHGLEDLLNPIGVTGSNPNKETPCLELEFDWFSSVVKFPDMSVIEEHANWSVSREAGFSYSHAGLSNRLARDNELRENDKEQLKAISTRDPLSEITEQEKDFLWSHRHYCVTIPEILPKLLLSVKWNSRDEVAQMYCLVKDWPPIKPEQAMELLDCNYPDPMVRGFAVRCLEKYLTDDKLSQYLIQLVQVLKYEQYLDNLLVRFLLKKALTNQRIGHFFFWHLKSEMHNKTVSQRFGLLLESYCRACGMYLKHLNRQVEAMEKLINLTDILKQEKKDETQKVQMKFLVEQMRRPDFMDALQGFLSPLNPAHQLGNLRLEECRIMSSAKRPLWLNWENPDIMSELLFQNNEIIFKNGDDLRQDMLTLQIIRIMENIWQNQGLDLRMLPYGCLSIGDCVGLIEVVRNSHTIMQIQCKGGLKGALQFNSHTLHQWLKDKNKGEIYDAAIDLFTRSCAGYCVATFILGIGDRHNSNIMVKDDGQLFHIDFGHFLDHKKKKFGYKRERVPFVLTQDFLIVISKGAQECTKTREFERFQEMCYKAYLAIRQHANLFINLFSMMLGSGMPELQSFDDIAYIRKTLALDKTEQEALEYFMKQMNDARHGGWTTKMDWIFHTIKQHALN
T1 sequence (P27986 whole entry partner): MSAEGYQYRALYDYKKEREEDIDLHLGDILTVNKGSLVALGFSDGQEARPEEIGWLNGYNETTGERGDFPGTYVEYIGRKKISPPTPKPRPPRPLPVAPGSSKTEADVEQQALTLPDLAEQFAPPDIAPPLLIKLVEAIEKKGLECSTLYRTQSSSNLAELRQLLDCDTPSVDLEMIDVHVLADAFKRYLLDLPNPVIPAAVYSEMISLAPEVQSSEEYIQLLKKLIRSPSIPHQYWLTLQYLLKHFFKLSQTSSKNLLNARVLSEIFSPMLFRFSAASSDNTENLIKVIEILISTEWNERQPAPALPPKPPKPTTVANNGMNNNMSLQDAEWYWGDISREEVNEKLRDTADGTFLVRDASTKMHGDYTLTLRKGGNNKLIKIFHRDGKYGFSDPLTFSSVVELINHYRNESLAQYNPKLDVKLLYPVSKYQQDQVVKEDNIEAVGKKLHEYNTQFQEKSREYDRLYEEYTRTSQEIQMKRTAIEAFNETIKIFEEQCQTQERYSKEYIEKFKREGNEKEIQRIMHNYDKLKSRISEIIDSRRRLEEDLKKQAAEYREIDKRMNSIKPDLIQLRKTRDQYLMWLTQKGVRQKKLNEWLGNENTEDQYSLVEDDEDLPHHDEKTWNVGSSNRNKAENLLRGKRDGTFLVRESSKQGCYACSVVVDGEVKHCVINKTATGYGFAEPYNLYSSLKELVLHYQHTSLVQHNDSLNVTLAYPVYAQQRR

Row | Structure (SMILES) | IC50 [1] [nM] | T47D pAKT S473 HTRF IC50 (H1047R): T47D (H1047R) selectivity over SKBR3 (WT) [2] | IC50 (EGF stimulation) [nM] | T47D pAKT S473 HTRF IC50 (H1047R): T47D (H1047R) selectivity over SKBR3 (WT) [3]
1 | Cc1cc([C@@H](C)Nc2ccccc2C(=O)O)c2nc(N3C[C@H](C)C[C@H](C)C3)cc(=O)n2c1 (single isomer, unassigned) [Compound 512] | < 100 | A (A denotes >20-fold) | – | –
2 | Cc1cc([C@@H](C)Nc2ccccc2C(=O)O)c2nc(N3CC[Si](C)(C)CC3)cc(=O)n2c1 (single isomer, unassigned) [Compound 431] | < 100 | A (A denotes >20-fold) | – | –
3 | Cc1cn2c(=O)c(C)c(-c3cccc(F)c3)nc2c(C(C)Nc2ccccc2C(=O)O)c1C (stereo not shown) [Compound 1348] | – | A (A denotes >20-fold) | < 100 | –
4 | Cc1cc(C(C)CNc2ccccc2C(=O)O)c2nc(N3CCOCC3)cc(=O)n2c1 (stereo not shown) [Compound 929] | – | – | > 2000 | C (C denotes ≤5-fold)
5 | Cc1cc(C(C)Nc2cnncc2C(=O)O)c2nc(N3CCOCC3)cc(=O)n2c1 (stereo not shown) [Compound 357] | > 2000 | C (C denotes ≤5-fold) | – | –
6 | Cc1cc(C(C)Nc2cccc3c2S(=O)(=O)NC3=O)c2nc(N3Cc4ccccc4C3)cc(=O)n2c1 (stereo not shown) [Compound 998] | – | – | – | C (C denotes ≤5-fold)
7 | Cc1cccc(-c2nc3c(C(C)Nc4ccccc4C(=O)CS(=O)(=O)N(C)C)cc(C)cn3c(=O)c2C)c1 (stereo not shown) [Compound 1321] | – | B (B denotes 20-fold≥value>5-fold) | – | –
8 | CCc1cc([C@@H](C)Nc2ccccc2C(=O)O)c2nc(N3CCOCC3)cc(=O)n2c1 [Compound 149] | > 2000 | C (C denotes ≤5-fold) | – | –
9 | Cc1cc([C@@H](C)Nc2ccccc2C(=O)O)c2nc(-c3ccc(C4CCOCC4)nc3)c(C)c(=O)n2c1 [Compound 1146] | – | A (A denotes >20-fold) | < 100 | –
10 | Cc1cc([C@H](C)Nc2cccnc2-c2ccnnc2)c2nc(N3Cc4ccccc4C3)cc(=O)n2c1 [Compound 943] | – | – | 100 to 500 | A (A denotes >20-fold)
11 | Cc1cc(C(C)Nc2ccccc2S(N)(=O)=O)c2nc(-c3ccc4c(c3)c(C)nn4C3CC3)c(C)c(=O)n2c1 (stereo not shown) [Compound 944] | – | – | 100 to 500 | A (A denotes >20-fold)
12 | Cc1cc(C(C)Nc2ccccc2C2(O)COC2)c2nc(-c3cccc(F)c3)c(C)c(=O)n2c1 (stereo not shown) [Compound 1389, 2-(3-fluorophenyl)-9-(1-((2-(3-hydroxyoxetan-3-yl)phenyl)amino)ethyl)-3,7-dimethyl-4H-pyrido[1,2-a]pyrimidin-4-one] | – | B (B denotes 20-fold≥value>5-fold) | 500 to 2000 | –
13 | Cc1cc([C@H](C)Nc2ccccc2C(=O)O)c2nc(-c3cnc4c(c3)c(C)cn4C)c(C)c(=O)n2c1 [Compound 1053] | – | – | – | C (C denotes ≤5-fold)
14 | Cc1cc([C@H](C)Nc2ccccc2C(N)=O)c2nc(-c3ccc(C4CC4)nc3)c(C)c(=O)n2c1 [Compound 1154] | – | C (C denotes ≤5-fold) | > 2000 | –
15 | Cc1cc(C(C)Nc2ccccc2C(=O)O)c2nc(N3CCN(CCC(N)=O)CC3)cc(=O)n2c1 (stereo not shown) [Compound 551] | > 2000 | C (C denotes ≤5-fold) | – | –
16 | CCC(Nc1ccccc1C(=O)O)c1cc(C)cn2c(=O)cc(N3CCOCC3)nc12 (stereo not shown) [Compound 132] | 500 to 2000 | C (C denotes ≤5-fold) | – | –
17 | Cc1cc(C(C)Nc2ccccc2-c2ccnnc2)c2nc(-c3ccc(C)c(Cl)c3)c(C)c(=O)n2c1 (stereo not shown) [Compound 1140] | – | A (A denotes >20-fold) | – | –
18 | C=C(C)N1CCC([C@@H]2C[C@@H]3CN(c4cc(=O)n5cc(C)cc([C@H](C)Nc6ccccc6C(=O)O)c5n4)C[C@@H]3C2)CC1 [Compound 796] | – | – | > 2000 | C (C denotes ≤5-fold)
19 | Cc1cc([C@@H](C)Nc2ccccc2S(N)(=O)=O)c2nc(C3CCCOC3)c(C)c(=O)n2c1 (stereo partly shown) [Compound 1283] | – | C (C denotes ≤5-fold) | > 2000 | –
20 | Cc1cc(C(C)Nc2ccccc2S(N)(=O)=O)c2nc(-c3cccc(F)c3)c(C)c(=O)n2c1 (stereo not shown) [Compound 1248] | – | A (A denotes >20-fold) | 100 to 500 | –
21 | Cc1cc(C(C)Nc2ccccc2C(=O)O)c2nc(N3Cc4ccccc4C3)c(C)c(=O)n2c1.O=C(O)C(F)(F)F (stereo not shown) [Compound 1412, 2-((1-(2-(isoindolin-2-yl)-3,7-dimethyl-4-oxo-4H-pyrido[1,2-a]pyrimidin-9-yl)ethyl)amino)benzoic acid trifluoroacetate] | – | A (A denotes >20-fold) | < 100 | –

Further lines, results first:

Row | IC50 [1] [nM] | T47D pAKT S473 HTRF IC50 (H1047R): T47D (H1047R) selectivity over SKBR3 (WT) [2] | IC50 (EGF stimulation) [nM] | T47D pAKT S473 HTRF IC50 (H1047R): T47D (H1047R) selectivity over SKBR3 (WT) [3] | Structure (SMILES)
22 | > 2000 | C (C denotes ≤5-fold) | – | – | Cc1cc([C@H](C)Nc2ccccc2C(=O)O)c2nc(N3CCCCC3)cc(=O)n2c1 [Compound 8]
23 | > 2000 | C (C denotes ≤5-fold) | – | – | Cc1cc([C@@H](C)Nc2ccccc2)c2nc(-c3cc(C)c4oc(=O)[nH]c4c3)cc(=O)n2c1 (single isomer, unassigned) [Compound 29]
24 | > 2000 | C (C denotes ≤5-fold) | – | – | CC(=O)Cc1cc2ccc(-c3cc(=O)n4cc(C)cc(C(C)Nc5ccccc5C(=O)O)c4n3)cn2n1 (stereo not shown) [Compound 507]
25 | – | C (C denotes ≤5-fold) | > 2000 | – | Cc1cc([C@H](C)Nc2ccccc2C(=O)O)c2nc(-c3ccc4c(C)nn(C5CC5)c4c3)c(C)c(=O)n2c1 [Compound 1126]
26 | – | – | – | C (C denotes ≤5-fold) | Cc1cc([C@H](C)Nc2ccccc2C(=O)O)c2nc(-c3ccc4c(c3)CC(=O)N4)cc(=O)n2c1 [Compound 766]
27 | – | A (A denotes >20-fold) | < 100 | – | Cc1cc(C(C)Nc2ccccc2C(=O)O)c2nc(-c3cccc(F)c3)c(C3CC3)c(=O)n2c1 (stereo not shown) [Compound 1231]
28 | > 2000 | C (C denotes ≤5-fold) | – | – | Cc1cc([C@H](C)Nc2ccccc2C(=O)O)c2nc(-c3cc(C)c4[nH]c(=O)[nH]c4c3)cc(=O)n2c1 [Compound 498]
29 | – | A (A denotes >20-fold) | – | – | Cc1cccc(-c2nc3c(C(C)Nc4ccccc4C(=O)O)cc(C)cn3c(=O)c2C(C)C)c1 (stereo not shown) [Compound 1245]
30 | – | – | > 2000 | C (C denotes ≤5-fold) | Cc1cc([C@H](C)Nc2ccccc2C(=O)O)c2nc(-c3ccc(C#N)nc3)c(C)c(=O)n2c1 [Compound 976]
31 | > 2000 | C (C denotes ≤5-fold) | – | – | Cc1cc([C@@H](C)Nc2ccccc2C(=O)O)c2nc(Nc3ccc4[nH]c(=O)oc4c3)cc(=O)n2c1 [Compound 546]
32 | – | – | 100 to 500 | A (A denotes >20-fold) | CNc1nn(C)c2ccc(-c3cc(=O)n4cc(C)cc(C(C)Nc5ccccc5C(=O)O)c4n3)cc12 (stereo not shown) [Compound 758]
